Source: patent publication US20230279025A1, “KRAS G12D INHIBITORS” (Mirati Therapeutics, Inc., priority 2020, published 2023)

Experiments:
[1] = target: T1, KRas G12D (Homo sapiens (Human), UniProt P01116, G12D); assay: KRas G12D Surface Plasmon Resonance (SPR) Binding Assay; conditions: Biacore T200, immobilized biotinylated KRAS protein, 1:1 binding model
Target sequence in this assay (P01116-2 other isoform, or with tags, fused parts or gaps G12D): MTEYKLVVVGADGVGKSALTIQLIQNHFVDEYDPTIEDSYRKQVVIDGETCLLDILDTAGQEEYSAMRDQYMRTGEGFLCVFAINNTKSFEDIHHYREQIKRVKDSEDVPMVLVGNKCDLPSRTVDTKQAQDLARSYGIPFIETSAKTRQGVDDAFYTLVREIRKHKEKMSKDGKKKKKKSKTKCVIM

[2] = target: T1, KRas G12D; assay: KRas G12D Binding Assay (TR-FRET displacement of Cy5 labelled tracer); conditions: GDP-loaded KRAS G12D (amino acids 1:169), 60 minute incubation at 22° C.
Description: After a 60 minute incubation at 22° C., the reaction was measured using a PerkinElmer EnVision multimode plate reader via TR-FRET dual wavelength detection, and the percent of control (POC) calculated using a ratiometric emission factor. […] The POC values were fit to a 4-parameter logistic curve and the IC50 value was determined as the concentration where the curve crosses 50 POC.
ND stands for “not determined.”
Target sequence in this assay (P01116 other isoform, or with tags, fused parts or gaps G12D): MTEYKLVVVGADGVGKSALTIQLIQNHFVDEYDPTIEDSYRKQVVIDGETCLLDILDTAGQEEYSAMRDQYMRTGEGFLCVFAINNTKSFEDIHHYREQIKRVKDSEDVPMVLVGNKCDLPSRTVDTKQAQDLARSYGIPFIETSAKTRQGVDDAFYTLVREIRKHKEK

[3] = system: KRas G12D-mediated phosphorylation of ERK in AGS cells (ATCC CRL-1739) expressing G12D; assay: Inhibition of KRas G12D-mediated Phosphorylation of ERK in AGS cells; format: cell-based; conditions: Homo sapiens; phospho-ERK(Thr202/Tyr204) normalized to GAPDH, AGS cells, 3 hours; read-out: IC50
Description: Cells were plated in tissue culture treated 96 well plates at a density of 40,000 cells/well and allowed to attach for 12-14 hours. Diluted compounds were then added in a final concentration of 0.5% DMSO. After 3 hours, the medium was removed, 150 μL of 4.0% formaldehyde was added and the plates incubated at room temperature for 20 minutes. The plates were washed with PBS, and permeabilized with 150 μL of ice cold 100% methanol for 10 minutes. Non-specific antibody binding to the plates was blocked using […] Licor blocking buffer (Li-Cor Biotechnology, Lincoln Nebr.) for 1 hour at room temperature.
The amount of phospho-ERK was determined using an antibody specific for the phosphorylated form of ERK and compared to the amount of GAPDH. Primary antibodies used for the detection were added as follows: Phospho-ERK(Cell Signaling cs-9101) diluted 1:500 and GAPDH(Millipore MAB374) diluted 1:5000 in Licor block+0.05% Tween 20. The plates were incubated for 2 hours at room temperature. The plates were washed with PBS+0.05% Tween 20.
Secondary antibodies used to visualize primary antibodies were added as follows: Anti-rabbit-680 diluted 1:1000 and Anti-mouse-800 diluted 1:1000 both in Licor block+0.05% TweeN20, and were incubated for 1 hour at room temperature. The plates were washed with PBS +0.05% Tween 20. A 100 μL aliquot of PBS was added to each well and the plates were read on a Li-Cor Odyssey CLX plate reader.

[4] = Whole Blood Stability (WBS), human whole blood; format: in vitro ADME
Description: Compounds (2 μM) were incubated at 37° C. for 0, 10, 30, 60, and 120 min in a 1:1 (v/v) blood and PBS, pH 7.4. Diluted blood was preincubated for 15 min at 37° C. before the reactions were initiated with the dosing of the compound. At the end of incubation, the same volume of water was mixed with the spiked blood samples, and then stop solution (200 ng/mL tolbutamide and 200 ng/mL labetalol in MeOH) was added to precipitate protein. Mixed thoroughly. Samples were centrifuged, and supernatants were analyzed by LC-MS/MS.

SMILES	Kd [1] [nM]	IC50 [2] [nM]	IC50 [3] [nM]	% remaining in human whole blood ([4]; time point 0 min) [%]	% remaining in human whole blood ([4]; time point 10 min) [%]	% remaining in human whole blood ([4]; time point 30 min) [%]	% remaining in human whole blood ([4]; time point 60 min) [%]	% remaining in human whole blood ([4]; time point 120 min) [%]
N#CC[C@@H]1C[C@@H]2CN(c3nc(OC[C@@]45CCCN4C[C@H](F)C5)nc4c(F)c(-c5cc(O)cc6ccccc56)ncc34)C[C@H]1N2 (racemic) [Example 339, 2-((1R,5S,6S)-3-(8-fluoro-2-((2-fluorotetrahydro-1H-pyrrolizin-7a(5H)-yl)methoxy)-7-(3-hydroxynaphthalen-1-yl)pyrido[4,3-d]pyrimidin-4-yl)-3,8-diazabicyclo[3.2.1]octan-6-yl)acetonitrile (racemic, trans)]	21.6	21	8660					
Oc1cc(-c2ncc3c(N4C[C@H]5CC[C@@H](C4)N5)nc(OCCCN4C[C@@H]5C[C@H]4CO5)nc3c2F)c2ccccc2c1 [Example 24, 4-(2-(3-((1S,4S)-2-oxa-5-azabicyclo[2.2.1]heptan-5-yl)propoxy)-4-((1R,5S)-3,8-diazabicyclo[3.2.1]octan-3-yl)-8-fluoropyrido[4,3-d]pyrimidin-7-yl)naphthalen-2-ol]	5	7.9	2890					
Oc1cc(-c2ncc3c(N4C[C@H]5CC[C@@H](C4)N5)nc(OCCN4C[C@@H]5C[C@H]4CO5)nc3c2F)c2ccccc2c1 [Example 26, 4-(2-(2-((1S,4S)-2-oxa-5-azabicyclo[2.2.1]heptan-5-yl)ethoxy)-4-((1R,5S)-3,8-diazabicyclo[3.2.1]octan-3-yl)-8-fluoropyrido[4,3-d]pyrimidin-7-yl)naphthalen-2-ol]	27.9	42.1	4280					
O[C@@H]1C[C@@H]2CN(c3nc(OCC45CCCN4CCC5)nc4c(F)c(-c5cccc6cccc(Cl)c56)ncc34)C[C@H]1N2 [Example 49, (1R,5R,6R)-3-(7-(8-chloronaphthalen-1-yl)-8-fluoro-2-((tetrahydro-1H-pyrrolizin-7a(5H)-yl)methoxy)pyrido[4,3-d]pyrimidin-4-yl)-3,8-diazabicyclo[3.2.1]octan-6-ol]	0.4	5.9	2120					
CC(C)N1CCC[C@H]1COc1nc(N2C[C@H]3C[C@@H](O)[C@@H](C2)N3)c2cnc(-c3cccc4cccc(Cl)c34)c(F)c2n1 [Example 153, (1R,5R,6R)-3-(7-(8-chloronaphthalen-1-yl)-8-fluoro-2-(((S)-1-isopropylpyrrolidin-2-yl)methoxy)pyrido[4,3-d]pyrimidin-4-yl)-3,8-diazabicyclo[3.2.1]octan-6-ol]	70.5	50.8	2370					
C#Cc1c(F)ccc2cc(O)cc(-c3ncc4c(N5C[C@H]6CC[C@@H](C5)N6C(=O)OCOC(=O)CCCCCCCCC)nc(OC[C@@]56CCCN5C[C@H](F)C6)nc4c3F)c12 [Example 471, (Decanoyloxy)methyl (1R,5S)-3-(7-(8-ethynyl-7-fluoro-3-hydroxynaphthalen-1-yl)-8-fluoro-2-(((2R,7aS)-2-fluorotetrahydro-1H-pyrrolizin-7a(5H)-yl)methoxy)pyrido[4,3-d]pyrimidin-4-yl)-3,8-diazabicyclo[3.2.1]octane-8-carboxylate]				100	105	77	51	31
